# Data taken from patent publication US20260184675A1, “CHIRAL ISOMERIC SULFITE COMPOUND AND APPLICATION THEREOF” (Chengdu Hanova BioSciences Co., Ltd, priority 2024, published 2026).
# Columns and labels:
# Assay type in all cases: in vivo
# [1] = test system: eggs of Tetranychus urticae; assay: Effect on hatching of eggs of Tetranychus urticae, leaf disc method; conditions: 5 ppm; for Hatching rate (%): 5 days after insecticide delivery
# How it was run: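 Twenty adult female Tetranychus urticae mites were placed on 2.0 cm Vicia faba leaf discs over wetted filter paper in lidded dishes kept moist, and removed within 36 hours. Eggs on each disc were counted under a microscope. The egg-bearing discs were dipped for 10 seconds in a compound solution at 5 ppm or in clear water, then kept moist, and hatching was checked five days after treatment.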
# [2] = test system: eggs of Aleyrodidae; assay: Effect on hatching of eggs of Aleyrodidae, leaf disc method; conditions: 10 ppm; for Hatching rate (%), Replicate 1 / Hatching rate (%), Replicate 2 / Hatching rate (%), Replicate 3 / Number of hatched larvae 5 days after insecticide delivery, Replicate 1 / Number of hatched larvae 5 days after insecticide delivery, Replicate 2 / Number of hatched larvae 5 days after insecticide delivery, Replicate 3: Aleyrodidae eggs; for Hatching rate (%), Replicate 1 / Hatching rate (%), Replicate 2 / Hatching rate (%), Replicate 3: 5 days after delivery; for Number of hatched larvae 5 days after insecticide delivery, Replicate 1 / Number of hatched larvae 5 days after insecticide delivery, Replicate 2 / Number of hatched larvae 5 days after insecticide delivery, Replicate 3: leaf disc
# How it was run: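 Inhibition of Aleyrodidae egg hatching was tested with a leaf disc method at 10 ppm. Egg numbers on each disc were counted under a microscope before treatment. Discs bearing eggs were soaked for 10 seconds in clear water or test solution, removed, and kept under moist conditions. Hatching was checked five days after insecticide delivery and hatched larvae were counted.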
# [3] = test system: eggs of Thrips; assay: Effect on hatching of eggs of Thrips, leaf disc method; conditions: 100 ppm; for Hatching rate (%): 5 days after insecticide delivery
# How it was run: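 Thrip egg hatching was tested by the leaf disc method on Vicia faba discs 2.0 cm across, placed over wetted filter paper. Egg numbers on each disc were counted under a microscope before treatment. Discs were then dipped for 10 seconds in clean water or a compound solution at 100 ppm. They were kept moist under normal conditions, and hatching was surveyed five days after insecticide delivery.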
# [4] = test system: eggs of Spodoptera litura; assay: Effect on hatching of eggs of Spodoptera litura, egg piece soaking; conditions: 500 ppm; for Hatching rate (%), Replicate 1 / Hatching rate (%), Replicate 2 / Hatching rate (%), Replicate 3 / Number of unhatched larvae 4 days after insecticide delivery, Replicate 1 / Number of unhatched larvae 4 days after insecticide delivery, Replicate 2 / Number of unhatched larvae 4 days after insecticide delivery, Replicate 3: Spodoptera litura eggs; for Hatching rate (%), Replicate 1 / Hatching rate (%), Replicate 2 / Hatching rate (%), Replicate 3: 4 days after delivery; for Number of unhatched larvae 4 days after insecticide delivery, Replicate 1 / Number of unhatched larvae 4 days after insecticide delivery, Replicate 2 / Number of unhatched larvae 4 days after insecticide delivery, Replicate 3: soaked 10 minutes
# How it was run: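 Egg pieces of about 60 eggs were soaked 10 min in test agent at 500 ppm, blotted, then held singly at 24±1 °C, 80±10% RH, 12:12 L:D. Hatched and unhatched eggs were counted on day 4 to give hatching rate and control effect; 3 replicates.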
# [5] = Replicate 1, listed as 1-(R, S)
# [6] = Replicate 2, listed as 1-(R, S)
# [7] = Replicate 3, listed as 1-(R, S)
# [8] = Replicate 1, listed as 19′-(R, R)
# [9] = Replicate 2, listed as 19′-(R, R)
# [10] = Replicate 1, listed as 1-(S, S)
# [11] = Replicate 2, listed as 1-(S, S)
# [12] = Replicate 3, listed as 1-(S, S)
structure (smiles),measurement,setting,value
"C[C@H](COS(=O)OCCF)Oc1ccc(Cl)cc1Cl (stereo partly drawn) [1-(R,S)]",Hatching rate (%),[1]; [5],14.10%
same,Hatching rate (%),[1]; [6],12.70%
same,Number of hatched larvae 5 days after insecticide delivery,[1]; [5],11
same,Number of hatched larvae 5 days after insecticide delivery,[1]; [6],88
same,"Hatching rate (%), Replicate 1","[2]; listed as 1-(R, S)",7.95%
same,"Hatching rate (%), Replicate 2","[2]; listed as 1-(R, S)",7.41%
same,"Hatching rate (%), Replicate 3","[2]; listed as 1-(R, S)",7.44%
same,"Number of hatched larvae 5 days after insecticide delivery, Replicate 1","[2]; listed as 1-(R, S)",7
same,"Number of hatched larvae 5 days after insecticide delivery, Replicate 2","[2]; listed as 1-(R, S)",10
same,"Number of hatched larvae 5 days after insecticide delivery, Replicate 3","[2]; listed as 1-(R, S)",9
same,Hatching rate (%),[3]; [5],9.57%
same,Hatching rate (%),[3]; [6],9.02%
same,Hatching rate (%),[3]; [7],7.95%
same,Number of hatched larvae 5 days after insecticide delivery,[3]; [5],9
same,Number of hatched larvae 5 days after insecticide delivery,[3]; [6],12
same,Number of hatched larvae 5 days after insecticide delivery,[3]; [7],7
same,"Hatching rate (%), Replicate 1","[4]; listed as 1-(R, S)",64.18%
same,"Hatching rate (%), Replicate 2","[4]; listed as 1-(R, S)",61.40%
same,"Hatching rate (%), Replicate 3","[4]; listed as 1-(R, S)",60.34%
same,"Number of unhatched larvae 4 days after insecticide delivery, Replicate 1","[4]; listed as 1-(R, S)",25
same,"Number of unhatched larvae 4 days after insecticide delivery, Replicate 2","[4]; listed as 1-(R, S)",22
same,"Number of unhatched larvae 4 days after insecticide delivery, Replicate 3","[4]; listed as 1-(R, S)",23
"CCC(COS(=O)OCCF)Oc1ccc(Cl)cc1Cl [19′-(R,R)]",inhibitory activity on the hatching of eggs of Tetranychus urticae (in words),[1],strong inhibitory activities
same,Hatching rate (%),[1]; [8],0.00%
same,Hatching rate (%),[1]; [9],0.00%
same,Number of hatched larvae 5 days after insecticide delivery,[1]; [8],0
same,Number of hatched larvae 5 days after insecticide delivery,[1]; [9],0
same,inhibitory activity on the hatching of eggs of Aleyrodidae (in words),[2],strong inhibitory activities
same,"Hatching rate (%), Replicate 1",[2],0.00%
same,"Hatching rate (%), Replicate 2",[2],0.00%
same,"Hatching rate (%), Replicate 3",[2],0.00%
same,"Number of hatched larvae 5 days after insecticide delivery, Replicate 1",[2],0
same,"Number of hatched larvae 5 days after insecticide delivery, Replicate 2",[2],0
same,"Number of hatched larvae 5 days after insecticide delivery, Replicate 3",[2],0
same,inhibitory activity on the hatching of eggs of Thrips (in words),[3],strong inhibitory activities
same,Hatching rate (%),[3]; [8],0.00%
same,Hatching rate (%),[3]; [9],0.00%
same,Hatching rate (%),[3]; Replicate 3,0.00%
same,Number of hatched larvae 5 days after insecticide delivery,[3]; [8],0
same,Number of hatched larvae 5 days after insecticide delivery,[3]; [9],0
same,Number of hatched larvae 5 days after insecticide delivery,[3]; Replicate 3,0
same,inhibitory activity on the hatching of eggs of Spodoptera litura (in words),[4],good inhibitory activities
same,"Hatching rate (%), Replicate 1","[4]; listed as 19′-(R, R)",17.54%
same,"Hatching rate (%), Replicate 2","[4]; listed as 19′-(R, R)",16.95%
same,"Hatching rate (%), Replicate 3","[4]; listed as 19′-(R, R)",19.12%
same,"Number of unhatched larvae 4 days after insecticide delivery, Replicate 1","[4]; listed as 19′-(R, R)",47
same,"Number of unhatched larvae 4 days after insecticide delivery, Replicate 2","[4]; listed as 19′-(R, R)",49
same,"Number of unhatched larvae 4 days after insecticide delivery, Replicate 3","[4]; listed as 19′-(R, R)",55
"C[C@@H](COS(=O)OCCF)Oc1ccc(Cl)cc1Cl (stereo partly drawn) [1-(S,S)]",inhibitory activity on the hatching of eggs of Tetranychus urticae (in words),[1],strong inhibitory activities
same,Hatching rate (%),[1]; [10],0.00%
same,Hatching rate (%),[1]; [11],0.00%
same,Number of hatched larvae 5 days after insecticide delivery,[1]; [10],0
same,Number of hatched larvae 5 days after insecticide delivery,[1]; [11],0
same,inhibitory activity on the hatching of eggs of Aleyrodidae (in words),[2],strong inhibitory activities
same,"Hatching rate (%), Replicate 1","[2]; listed as 1-(S, S)",0.00%
same,"Hatching rate (%), Replicate 2","[2]; listed as 1-(S, S)",0.00%
same,"Hatching rate (%), Replicate 3","[2]; listed as 1-(S, S)",0.00%
same,"Number of hatched larvae 5 days after insecticide delivery, Replicate 1","[2]; listed as 1-(S, S)",0
same,"Number of hatched larvae 5 days after insecticide delivery, Replicate 2","[2]; listed as 1-(S, S)",0
same,"Number of hatched larvae 5 days after insecticide delivery, Replicate 3","[2]; listed as 1-(S, S)",0
same,inhibitory activity on the hatching of eggs of Thrips (in words),[3],strong inhibitory activities
same,Hatching rate (%),[3]; [10],0.00%
same,Hatching rate (%),[3]; [11],0.00%
same,Hatching rate (%),[3]; [12],0.00%
same,Number of hatched larvae 5 days after insecticide delivery,[3]; [10],0
same,Number of hatched larvae 5 days after insecticide delivery,[3]; [11],0
same,Number of hatched larvae 5 days after insecticide delivery,[3]; [12],0
same,inhibitory activity on the hatching of eggs of Spodoptera litura (in words),[4],good inhibitory activities
same,"Hatching rate (%), Replicate 1","[4]; listed as 1-(S, S)",23.73%
same,"Hatching rate (%), Replicate 2","[4]; listed as 1-(S, S)",26.15%
same,"Hatching rate (%), Replicate 3","[4]; listed as 1-(S, S)",20.69%
same,"Number of unhatched larvae 4 days after insecticide delivery, Replicate 1","[4]; listed as 1-(S, S)",45
same,"Number of unhatched larvae 4 days after insecticide delivery, Replicate 2","[4]; listed as 1-(S, S)",48
same,"Number of unhatched larvae 4 days after insecticide delivery, Replicate 3","[4]; listed as 1-(S, S)",46
CC(C)(COS(=O)OCCF)Oc1ccc(Cl)cc1Cl (stereo not drawn) [Compound 10′],inhibitory activity on the hatching of eggs of Tetranychus urticae (in words),[1],strong inhibitory activities
same,Hatching rate (%),[1]; Replicate 1,1.18%
same,Hatching rate (%),[1]; Replicate 2,1.10%
same,Number of hatched larvae 5 days after insecticide delivery,[1]; Replicate 1,1
same,Number of hatched larvae 5 days after insecticide delivery,[1]; Replicate 2,1
same,inhibitory activity on the hatching of eggs of Aleyrodidae (in words),[2],strong inhibitory activities
same,"Hatching rate (%), Replicate 1",[2],2.02%
same,"Hatching rate (%), Replicate 2",[2],0.97%
same,"Hatching rate (%), Replicate 3",[2],1.05%
same,"Number of hatched larvae 5 days after insecticide delivery, Replicate 1",[2],2
same,"Number of hatched larvae 5 days after insecticide delivery, Replicate 2",[2],1
same,"Number of hatched larvae 5 days after insecticide delivery, Replicate 3",[2],1
same,inhibitory activity on the hatching of eggs of Thrips (in words),[3],strong inhibitory activities
same,Hatching rate (%),[3]; Replicate 1,0.00%
same,Hatching rate (%),[3]; Replicate 2,1.55%
same,Hatching rate (%),[3]; Replicate 3,0.00%
same,Number of hatched larvae 5 days after insecticide delivery,[3]; Replicate 1,0
same,Number of hatched larvae 5 days after insecticide delivery,[3]; Replicate 2,2
same,Number of hatched larvae 5 days after insecticide delivery,[3]; Replicate 3,0
same,"Hatching rate (%), Replicate 1",[4],40.63%
same,"Hatching rate (%), Replicate 2",[4],41.94%
same,"Hatching rate (%), Replicate 3",[4],42.37%
same,"Number of unhatched larvae 4 days after insecticide delivery, Replicate 1",[4],38
same,"Number of unhatched larvae 4 days after insecticide delivery, Replicate 2",[4],36
same,"Number of unhatched larvae 4 days after insecticide delivery, Replicate 3",[4],34
